This experiment relates to Oats. Description: Glasshouse trial: adjuvant effect when applied with glyphosate to control oats. The class given is in vivo. Particulars: no adjuvant, 14 days after treatment. From the text:
In this example, the adjuvant effect of Compositions C and D from Example 1 was compared with a range of commercially available adjuvants when applied with glyphosate in 2 water hardnesses to control oats in a glasshouse.

As for `O=C(O)CNCP(=O)(O)O` [Glyphosate, glyphosate], the “Fresh Weight % of untreated control” value runs as follows: (glyphosate 50 g a.i./ha, water hardness 50 ppm CaCO3, oats 1.5-2 leaf) 73 % of untreated control; (glyphosate 50 g a.i./ha, water hardness 300 ppm CaCO3) 106 % of untreated control; (glyphosate 100 g a.i./ha, water hardness 50 ppm CaCO3) 52 % of untreated control; (glyphosate 100 g a.i./ha, water hardness 300 ppm CaCO3) 65 % of untreated control.
